Assay results from article PMC7015555, “Transthyretin-Binding Activity of Complex Mixtures Representing the Composition of Thyroid-Hormone Disrupting Contaminants in House Dust and Human Serum” (Environmental Health Perspectives, 2020).
pIC50, pKd, pKi: −log10 of the molar value. Read-outs that look alike come from different tables or passages of the source.

Key:
[1] = molecular target: T1, TTR (Homo sapiens, UniProt P02766); test: Saturation experiment for the FITC-T4-TTR complex; type: binding; details: 30 nM TTR, FITC-T4 0 to 1,000 nM, no inhibitor
Protocol: Competitive TTR-binding assays were performed by incubating human TTR ( 30nM ) with 110nM of FITC- T4 in the presence of test compounds, reference compound T4 , or carrier solvent control (1% DMSO). For each incubation with TTR, a parallel incubation was performed without TTR to correct for background fluorescence of the unbound FITC- T4 . In the competitive binding experiments, these control incubations were also used to check for possible quenching of FITC- T4 fluorescence by the test compounds and for autofluorescence of the test compounds themselves, neither of which was observed. […]
The Kd value for the FITC-T4-TTR complex was determined in a saturation binding experiment with various concentrations of FITC-T4 (ranging from LT = 0 to LT = 1E-6 M) in the absence or the presence of a fixed concentration of TTR (PT = 3E-8 M).
Using the least-squares method, a non-linear regression fit was performed on the corrected fluorescence Fc as a function of LT, yielding parameter estimates p*(q-1)=0.644 (AFU/nM) and […]
S1.4 Derivation of Ki from the ICx determined in the bioassay
The inhibitor-specific ICx value determined in the bioassay is defined as the total inhibitor concentration [IT] at which the concentration of ligand-protein complex [PLx] is (100-x)% of the concentration of ligand-protein complex in the absence of inhibitor [PL0], i.e. […]

[2] = molecular target: T1, TTR; test: FITC-T4 TTR competitive binding assay; details: for REP (relative potency compared to T4): IC20 of T4 / IC20 of compound (Equation 14); for T4EQ concentration (nmol/g dust): reported concentration of the compound in SRM2585 dust x REP
[3] = tested on: TTR; details: cited from earlier work; for IC50: read-out: IC50 (M), Radioactive Ligand Binding Assay data from the literature; for REP, Radioactive Ligand Binding Assay data from the literature: relative effect potency
[4] = molecular target: TBG; details: ref Salvatore et al. 2016; read-out: Kd(TBG) for T4; cited from earlier work
[5] = set-up: method as in Jahnke et al. 2004; details: rodents; ref Jahnke et al. 2004; cited from earlier work
[6] = set-up: method as in Jahnke et al. 2004; details: humans; ref Jahnke et al. 2004; cited from earlier work
[7] = 20% inhibition of FITC-T4 binding to TTR, 30 nM TTR, 110 nM FITC-T4, 2 h at 4°C, pH 8.0
[8] = individual compounds, 30 nM TTR, 110 nM FITC-T4, 2 h at 4°C, pH 8.0, — = 50% inhibition level not reached (footnote g), read-out: IC50

Structure (SMILES) | IC20 [2, 7] [µM] | REP (relative potency compared to T4) [2] | pIC50 [2, 8] | pKi ([2]; read-out: Ki) | T4EQ concentration (nmol/g dust) [2] [nmol/g dust] | IC50 ([3]; ref Weiss et al. 2015) [M] | REP, Radioactive Ligand Binding Assay data from the literature ([3]; ref Weiss et al. 2015) | IC20 ([2]; pH 8) [µM] | also measured
O=C1OC2(c3ccc(O)cc3Oc3cc(O)ccc32)c2ccc(NC(=S)NC(Cc3cc(I)c(Oc4cc(I)c(O)c(I)c4)c(I)c3)C(=O)O)cc21 (stereo not drawn) [FITC- T4] |  |  |  |  |  |  |  |  | pKd [1]: 6.85
O=S(=O)(O)C(F)(F)C(F)(F)C(F)(F)C(F)(F)C(F)(F)C(F)(F)C(F)(F)C(F)(F)F [PFOS, perfluorooctane sulfonic acid] | 0.082 | 0.26 | 6.60 | 6.80 | 1.201 | 9.4e-07 | 0.065 |  | 
O=C(O)C(F)(F)C(F)(F)C(F)(F)C(F)(F)C(F)(F)C(F)(F)C(F)(F)C(F)(F)C(F)(F)C(F)(F)F [PFUnDA, perfluoroundecanoic acid] | 1 | 0.021 | 5.51 | 5.66 | 0.002 | 2.16e-05 | 0.003 |  | 
Oc1c(Cl)c(Cl)c(Cl)c(Cl)c1Cl [Pentachlorophenol, pentachlorophenol] |  | 1.2 |  |  |  | 2.3e-07 | 1.74 | 0.017 | pIC50 [2]: 7.22; pKi [2]: 7.62
CCCOC(=O)c1ccc(O)cc1 [Propylparaben, propyl 4-hydroxybenzoate] |  | 0.0039 |  |  |  |  |  | 5.5 | pKi ([2]; inhibitor-TTR dissociation constant converted from IC20 (Equation 4), 4°C, read-out: Ki): 4.92; pIC50 ([2]; read-out: IC50): 4.72; IC50 ([3]; ref Zhang et al. 2015): 1.9e-05 M; REP, Radioactive Ligand Binding Assay data from the literature ([3]; ref Zhang et al. 2015): 0.0038
CC(C)(c1cc(Br)c(O)c(Br)c1)c1cc(Br)c(O)c(Br)c1 [TBBPA, tetrabromo-bisphenol-A] | 0.014 | 1.5 | 7.47 | 7.77 | 0.586 | 3.1e-08 | 1.6 |  | 
NC(Cc1cc(I)c(Oc2cc(I)c(O)c(I)c2)c(I)c1)C(=O)O (stereo not drawn) [Thyroxine ( T4 ), thyroxine] |  |  |  |  |  |  |  | 0.021 | IC20 ([3]; ref Hamers et al. 2008, Weiss et al. 2009, read-out: IC20 in the radioligand binding assay): ~0.03 µM; pKd [4]: 10.00; T4 half-life time [5]: 12 to 24 h; T4 half-life time [6]: 120 to 220 h
